In patent publication US20100034874A1, “LIPOSOME ENCAPSULATING AMMINE-PLATINUM COMPLEX AT HIGH CONCENTRATION, AND METHOD FOR PRODUCTION OF THE LIPOSOME” (KATAYAMA CHEMICAL INDUSTRIES CO., LTD., priority 2006, published 2010):

Columns and labels:
[1] = system: Ehrlich ascites cancer cells (EAT cells) tumor; assay: Accumulation at cancerous site: platinum content in removed tumor by FAAS; format: in vivo, mouse (Balb/c); details: 1.7 mg/kg body weight, caudal vein, n=1
Protocol: 1×10^6 Ehrlich ascites cancer cells (EAT cells) (ATCC Number: CCl^−77TME (Ehrlich-Letter ascites)) were transplanted subcutaneously into the right femoral region of a 6-week old mouse (Balb/c, female) (n=1) and the following test was performed after 10 days. A cis-diamine dichloroplatinum (II)-containing sialyl Lewis X-modified liposome and a control of pure cis-diamine dichloroplatinum (II) were administered respectively into the caudal vein of a mouse in an amount of 150 μl, i.e. 1.7 mg/kg body weight (226 μg/ml). The resulting tumor was removed, 48 and 96 hours after administration. 0.1 g of the removed tumor tissue (0.2 to 1.0 g) was added to 1 ml of conc. nitric acid, and the mixture was agitated for 5 minutes. After static storage for 1 hour, the mixture was heated at […] in a water bath and then cooled to room temperature. 300 μl of distilled water was added to 100 μl of the nitric 5 acid-treated solution. The content of platinum therein was determined by flameless atomic absorption spectroscopy (FAAS: AA-6700 Atomic absorption flame emission spectrophotometer SIMAZU), and the platinum contents in 1 g of tumor were compared between the sample and the control. […]

[2] = system: Ehrlich ascites cancer cells (EAT cells); assay: Cell proliferation-inhibiting activity (MTT assay, WST-8 reagent); format: cell-based; details: 48 hours, no sample 0.480, n=3
Protocol: Ehrlich ascites cancer cells (EAT cells) (ATCC Number: CCl^−77TME (Ehrlich-Letter ascites)) were inoculated at 1×10^3 cell/100 μl/well (Falcon3072), and a sample was added after culture for 24 hours. The samples were prepared by diluting the cis-diamine dichloroplatinum (II)-containing unmodified liposome, the cis-diamine dichloroplatinum (II)-containing sialyl Lewis X liposome, and the cis-diamine dichloroplatinum (II)-containing anti-E-selectin antibody-modified liposome, with DMEM buffer solution (Dulbeccos's Ham Modified Eagle liquid medium, low glucose SIGMA D6046)/10% FBS (fetal calf serum SIGMA F0926)/penicillin 100 unit/ml-streptomycin 100 μg/ml (antibiotic antimycotic solution, stabilized SIGMA A5955)) to a cis-diamine dichloroplatinum (II) amount of 10 μg/ml. […] The cell count, 48 hours after addition was determined by the MTT assay of using the formazan amount as an indicator.
In addition, a solution containing only added DMEM/10% FBS was analyzed by the MTT assay as a control containing no sample.
A cell count-measuring reagent WST-8 (Kishida Chemical) was added to each well in an amount of 20 μl, and the absorbance thereof at 450 nm was determined after 2 hours. The absorbance was determined by using GE Healthcare Ultrospec-6300. […]

[3] = system: Ehrlich ascites cancer cells (EAT cells); assay: Tumor proliferation-inhibiting activity (tumor volume); format: in vivo, mouse (Balb/c); details: 1.5 mg/kg caudal vein on days 5, 12, 19, n=3
Protocol: 1×10^6 Ehrlich ascites cancer cells (EAT cells) (ATCC Number: CCl^−77TME (Ehrlich-Letter ascites)) were transplanted subcutaneously into right femoral region of 6-week old mice (Balb/c, female) (n=3), and the following tests were performed after 10 days. The cis-diamine dichloroplatinum (II)-containing sialyl Lewis X-modified liposome and the anti-E-selectin antibody-modified liposome were administered into the caudal vein of a mouse respectively in an amount of 1.5 mg/kg (200 μg/ml) on the 5th, 12th, and 19th days after transplantation. As a control, cis-diamine dichloroplatinum (II) was dissolved in physiological saline to a concentration of 200 μg/ml. The dissolved solution was administered similarly.
The size, length (A mm) and diameter (B mm), of the tumor was determined by using a digital vernier caliper (Mitsutoyo CD-S15C) on the 12th, 19th, and 29th days after tumor transplantation. The volume of the tumor (mm^3) was calculated by the following Formula: (A×B^2)×0.4.

[4] = cited from earlier work
[5] = Conversion of cis-diamine dinitratoplatinum (II) to cis-diamine dichloroplatinum (II) in 150 mM sodium chloride (UV absorption spectrum); format: physicochemical
Protocol: Five mg/ml of cis-diamine dinitratoplatinum (II) was dissolved in a TAPS buffer solution containing 150 mM of sodium chloride (pH: 8.4); the solution was stationarily placed at 25° C.; and the UV spectrum of the solution was determined over time (0 minute, 5 minutes, 10 minutes, 15 minutes, 30 minutes and 45 minutes). One mg of cis-diamine dichloroplatinum (II) was dissolved in 1 ml of sodium chloride-containing TAPS buffer solution, to give a control, and the UV spectrum thereof was obtained. […] There was no change in UV spectrum, when the sample was stored without movement for 45 minutes or more. […] This probably occurs because the presence of NaCl leads to the conversion of cis-diamine dinitratoplatinum (II) to the hardly water-soluble cis-diamine dichloroplatinum (II) and the subsequent precipitation of the latter.
Replacement of the nitrate ion of cis-diammine dinitratoplatinum (II) with the chloride ion in the 150 mM sodium chloride solution was studied by absorption spectroscopic method (Comparative Example 1 and FIGS. 4A and 4B).

Solubility in water = format: physicochemical
Protocol: For example, in the case of cisplatin, the solubility of cisplatin in water is 2 mg/ml (room temperature). The solubility of cisplatin nitrate is 20 mg/ml. Namely, cisplatin can be used as a platinum complex in an amount of not less than its solubility (room temperature). Ionic species forming a water-soluble or a poorly water-soluble salt with the platinum complex such as cisplatin are known in the art or can be selected properly, and thus, even if the platinum complex is that other than cisplatin, it is possible to select a platinum complex properly by considering its solubility, similarly to cisplatin. In this case, it is possible to form nitrates similarly, by adjusting the equivalent amount of silver nitrate added. In addition, concentrations of a bromide ion and an iodide ion are the same as the concentration of a chloride ion respectively; therefore, with any of these ions, the present invention can be carried out without problems. This is because the bromide ion or the iodide ion, which are higher in binding property than the chloride ion, can form a poorly water-soluble substance similarly, even when the present invention is carried out under the same conditions. Since it is believed that there is no difference in liposomal membrane permeability of each ion, the present invention can be carried out by taking these elements into consideration similarly.

In the case of `N.N.[Cl][Pt][Cl]` [Cisplatin, cis-diammine dichloroplatinum (II)], the “Platinum concentration (ng/g tissue) in tumor” value ([1]; 48 hours after administration) is reported as 361 ng/g tissue, the “Platinum concentration (ng/g tissue) in tumor” value ([1]; 96 hours after administration) is reported as 49 ng/g tissue and the “Average absorbance (450 nm)” value ([2]; sample final concentration 8.30 μM) is reported as 0.045. For the same molecule, the “Average absorbance (450 nm)” value ([2]; sample final concentration 16.60 μM) was 0.027, the Average tumor volume ([3]; Day 12 after tumor transplantation) was 63 mm^3 and the Average tumor volume ([3]; Day 19 after tumor transplantation) was 63 mm^3. For the same molecule, the Average tumor volume ([3]; Day 29 after tumor transplantation) was 501 mm^3.
For `[NH2][Pt]([NH2])([O][N+](=O)[O-])[O][N+](=O)[O-]` [CDDP-3, cis-diammine dinitratoplatinum (II)], the “solubility of cisplatin nitrate” value [4] is listed as 20 mg/mL, the “time for conversion to cis-diamine dichloroplatinum (II)” value ([5]; TAPS containing 150 mM NaCl, pH 8.4, 25° C., 5 mg/ml) is listed as 45 min and the “fraction converted to cis-diamine dichloroplatinum (II)” value ([5]; in the presence of 150 mM sodium chloride) is listed as at least 99%. For the same molecule, the “solubility in water relative to cis-diamine dichloroplatinum (II)” value (Solubility in water) was “approximately 10 times”.
